Literature values, collected in paper PMC11489133, “Obicetrapib exhibits favorable physiochemical and pharmacokinetic properties compared to previous cholesteryl ester transfer protein inhibitors: An integrated summary of results from non‐human primate studies and clinical trials” (Pharmacology Research & Perspectives, 2024).
Where two headings read alike, the source gives them in different places. Marks after values point to notes of the source that are not given here.

Design: method as in PMID 24628035
Settings: cited from earlier work; for t ½ (terminal half‐life): arithmetic mean (CV%)
[1] = single dose 5 mg, after a standard breakfast, geometric mean (CV%)
[2] = single dose 10 mg, after a standard breakfast, geometric mean (CV%)

Question: Which “t ½ (terminal half‐life)” value (multiple daily doses 5 mg, after the last dose) does the source give for `CCOC(=O)N1c2ccc(C(F)(F)F)cc2C(N(Cc2cc(C(F)(F)F)cc(C(F)(F)F)c2)c2ncc(OCCCC(=O)O)cn2)CC1CC` (stereo not shown) [Obicetrapib] here?
Answer: 148 (30%) h

Question: And the t max (multiple daily doses 5 mg, after the last dose, median (minimum, maximum))?
Answer: 4 (3, 8) h

Question: And the C max (multiple daily doses 5 mg, steady state, after the last dose, geometric mean (CV%))?
Answer: 436 (18%) ng/mL

Question: And the “AUC (0, τ, ss)” value (multiple daily doses 5 mg, steady state, τ 24 h, geometric mean (CV%))?
Answer: 7606 (20%) ^f ng·h/mL

Question: What about the “Rac (accumulation ratio, AUC(0,τ,ss)/AUC(0–24 h))” value (multiple daily doses 5 mg) of the same compound?
Answer: 4.3 (1.1)

Question: And the “Rac (accumulation ratio, AUC(0,τ,ss)/AUC(0–24 h))” value (multiple daily doses 5 mg, listed as obicetrapib)?
Answer: 4.3

Question: What about the “t ½ (terminal half‐life)” value (multiple daily doses 10 mg, after the last dose) of the same compound?
Answer: 131 (19%) h

Question: And the t max (multiple daily doses 10 mg, after the last dose, median (minimum, maximum))?
Answer: 6 (4, 8) h

Question: And the C max (multiple daily doses 10 mg, steady state, after the last dose, geometric mean (CV%))?
Answer: 692 (23%) ng/mL

Question: And the “Rac (accumulation ratio, AUC(0,τ,ss)/AUC(0–24 h))” value (multiple daily doses 10 mg)?
Answer: 3.7 (0.8)

Question: What about the “Rac (accumulation ratio, AUC(0,τ,ss)/AUC(0–24 h))” value (multiple daily doses 10 mg, listed as obicetrapib) of the same compound?
Answer: 3.7

Question: And the “t ½ (terminal half‐life)” value (multiple daily doses 25 mg, after the last dose)?
Answer: 121 (23%) h

Question: What about the t max (multiple daily doses 25 mg, after the last dose, median (minimum, maximum)) of the same compound?
Answer: 4 (2, 6) h

Question: And the C max (multiple daily doses 25 mg, steady state, after the last dose, geometric mean (CV%))?
Answer: 1398 (18%) ng/mL

Question: What about the “Rac (accumulation ratio, AUC(0,τ,ss)/AUC(0–24 h))” value (multiple daily doses 25 mg) of the same compound?
Answer: 2.1 (0.3)

Question: And the “Rac (accumulation ratio, AUC(0,τ,ss)/AUC(0–24 h))” value (multiple daily doses 25 mg, listed as obicetrapib)?
Answer: 2.1

Question: And the t max (multiple daily doses, all doses except 10 mg)?
Answer: 4 h

Question: What about the obicetrapib in urine (multiple doses, any participant) of the same compound?
Answer: not detected

Question: And the “AUC (0–24 h)” value [1]?
Answer: 1796 (14%) ng·h/mL

Question: What about the C max [1] of the same compound?
Answer: 116 (13%) ng/mL

Question: What about the t max (single dose 5 mg, after a standard breakfast, median (minimum, maximum)) of the same compound?
Answer: 6 (4, 8) h

Question: And the “AUC (0–24 h)” value [2]?
Answer: 3471 (18%) ng·h/mL

Question: What about the C max [2] of the same compound?
Answer: 245 (14%) ng/mL

Question: What about the t max (single dose 10 mg, after a standard breakfast, median (minimum, maximum)) of the same compound?
Answer: 6 (4, 8) h

Question: What about the C max (single dose 25 mg, after a standard breakfast, geometric mean (CV%)) of the same compound?
Answer: 750 (19%) ng/mL

Question: What about the t max (single dose 25 mg, after a standard breakfast, median (minimum, maximum)) of the same compound?
Answer: 6 (3, 8) h

Question: What about the t max (single dose regardless of the strength of the dose (1–25 mg)) of the same compound?
Answer: 6 h

Question: What about the “time in which plasma levels were approaching steady state” value (visual inspection of trough concentrations, multiple once daily doses) of the same compound?
Answer: within one to two weeks
